Values joined by “and” are separate entries in the source; they are usually repeats but may differ in a detail not shown here. Equal entries are not always repeated. Inconclusive results and toxic doses are left out. The calls were made as follows: active = survival T/C of 150% or more; inactive = T/C below 125% in these data.
Test system: P388 leukemia ip, CD2F1 mice, survival T/C
Experiment: NCI In Vivo Anticancer Drug Screen. Data for tumor model P388 Leukemia (intraperitoneal) in CD2F1 (CDF1) mice
Settings: endpoint: median survival time, higher = longer survival
Outline: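 Mice carrying the transplanted tumor received test compound or vehicle. Survival was recorded in each group, and the value is the treated-group measurement divided by that of the vehicle-treated control group.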

[1] = dose: 60.0 mg/kg/injection, schedule: Q01DX005 (ip), vehicle: saline with Tween-80
[2] = dose: 120.0 mg/kg/injection, schedule: Q01DX005 (ip), vehicle: saline with Tween-80
[3] = dose: 240.0 mg/kg/injection, schedule: Q01DX005 (ip), vehicle: saline with Tween-80
[4] = dose: 60.0 mg/kg/injection, schedule: Q01DX005 (ip), vehicle: Klucel (hydroxypropylcellulose) (HPC)
[5] = dose: 120.0 mg/kg/injection, schedule: Q01DX005 (ip), vehicle: Klucel (hydroxypropylcellulose) (HPC)
[6] = dose: 240.0 mg/kg/injection, schedule: Q01DX005 (ip), vehicle: Klucel (hydroxypropylcellulose) (HPC)
[7] = dose: 50.0 mg/kg/injection, schedule: Q01DX005 (ip), vehicle: Klucel (hydroxypropylcellulose) (HPC)
[8] = dose: 100.0 mg/kg/injection, schedule: Q01DX005 (ip), vehicle: Klucel (hydroxypropylcellulose) (HPC)
[9] = dose: 50.0 mg/kg/injection, schedule: Q01DX009 (ip), vehicle: saline with Tween-80
[10] = dose: 100.0 mg/kg/injection, schedule: Q01DX009 (ip), vehicle: saline with Tween-80
[11] = dose: 200.0 mg/kg/injection, schedule: Q01DX009 (ip), vehicle: saline with Tween-80
[12] = dose: 12.5 mg/kg/injection, schedule: Q01DX009 (ip), vehicle: saline with Tween-80
[13] = dose: 25.0 mg/kg/injection, schedule: Q01DX009 (ip), vehicle: saline with Tween-80
[14] = dose: 50.0 mg/kg/injection, schedule: Q01DX005 (ip), vehicle: saline with Tween-80
[15] = dose: 30.0 mg/kg/injection, schedule: Q01DX005 (ip), vehicle: Klucel (hydroxypropylcellulose) (HPC)
[16] = dose: 100.0 mg/kg/injection, schedule: Q01DX005 (ip), vehicle: saline with Tween-80
[17] = dose: 200.0 mg/kg/injection, schedule: Q01DX005 (ip), vehicle: saline with Tween-80

Measured: T/C

O=S(=O)(c1cc(Cl)ccc1Cl)N(CCCCCN(S(=O)(=O)c1cc(Cl)ccc1Cl)S(=O)(=O)c1cc(Cl)ccc1Cl)S(=O)(=O)c1cc(Cl)ccc1Cl
inactive: [1] 99 % of control | [2] 96 % of control | [3] 95 % of control

Nc1ccc(C2NC(=O)Cc3c2ccc2ccccc32)cc1 (centres undefined)
inactive: [4] 95 % of control | [5] 94 % of control | [6] 95 % of control

CC1=CC(c2c(O)cc(O)c(C(=O)CCc3ccccc3)c2O)C(C(C)C)CC1 (centres undefined)
inactive: dose: 3.75 mg/kg/injection, schedule: Q01DX005 (ip), vehicle: Klucel + Tween-80 94 % of control | dose: 7.5 mg/kg/injection, schedule: Q01DX005 (ip), vehicle: Klucel + Tween-80 103 % of control | dose: 15.0 mg/kg/injection, schedule: Q01DX005 (ip), vehicle: Klucel + Tween-80 97 % of control | dose: 30.0 mg/kg/injection, schedule: Q01DX005 (ip), vehicle: Klucel + Tween-80 98 % of control

COc1cc(NCCCCCN=C(N)NC#N)c2ncccc2c1
inactive: [7] 99 % of control | [8] 98 % of control | dose: 200.0 mg/kg/injection, schedule: Q01DX005 (ip), vehicle: Klucel (hydroxypropylcellulose) (HPC) 92 % of control

CC1(C)OCC2CCC=C21 (centres undefined)
inactive: [1] 92 % of control | [2] 99 % of control | [3] 97 % of control

C#CC(CC)(CC)N=Cc1cc(Cl)cc(Cl)c1O
inactive: [9] 98 % of control | [10] 94 % of control | [11] 96 % of control

Cc1cc2nccc(/C=C/c3ccc(N(C)C)cc3)c2cc1C
inactive: [12] 102 % of control | [13] 110 % of control | [9] 92 % of control

C=CC1CCC[S+]1CC(=O)OCC (centres undefined)
inactive: dose: 12.5 mg/kg/injection, schedule: Q01DX005 (ip), vehicle: saline with Tween-80 100 % of control | dose: 25.0 mg/kg/injection, schedule: Q01DX005 (ip), vehicle: saline with Tween-80 105 % of control | [14] 102 % of control and 107 % of control

N#Cc1cccc[n+]1Cc1ccc([N+](=O)[O-])cc1
inactive: [12] 95 % of control | [13] 109 % of control | [9] 118 % of control

CC(C)(C)N=C(CCSc1ccccc1)Nc1c(Cl)cccc1Cl
inactive: [9] 100 % of control | [10] 105 % of control | [11] 96 % of control

O=C1OCC2C(=O)OCC12 (centres undefined)
inactive: dose: 4.0 mg/kg/injection, schedule: Q01DX009 (ip), vehicle: saline with Tween-80 113 % of control and 87 % of control | dose: 8.0 mg/kg/injection, schedule: Q01DX009 (ip), vehicle: saline with Tween-80 108 % of control and 109 % of control and 96 % of control | dose: 16.0 mg/kg/injection, schedule: Q01DX009 (ip), vehicle: saline with Tween-80 100 % of control and 109 % of control and 118 % of control | dose: 32.0 mg/kg/injection, schedule: Q01DX009 (ip), vehicle: saline with Tween-80 104 % of control and 124 % of control and 95 % of control | dose: 50.0 mg/kg/injection, schedule: Q04DX003 (ip), vehicle: saline with Tween-80 99 % of control | dose: 64.0 mg/kg/injection, schedule: Q01DX009 (ip), vehicle: saline with Tween-80 100 % of control and 109 % of control and 124 % of control | dose: 100.0 mg/kg/injection, schedule: Q04DX003 (ip), vehicle: saline with Tween-80 102 % of control | dose: 128.0 mg/kg/injection, schedule: Q01DX009 (ip), vehicle: saline with Tween-80 113 % of control | dose: 200.0 mg/kg/injection, schedule: Q04DX003 (ip), vehicle: saline with Tween-80 105 % of control | dose: 400.0 mg/kg/injection, schedule: Q04DX003 (ip), vehicle: saline with Tween-80 99 % of control

COc1ccccc1C1OC2=Nc3cc(C)c(C)cc3NC2C1=O (centres undefined)
inactive: [15] 96 % of control | [4] 93 % of control | [5] 90 % of control | [6] 95 % of control

CSc1nccc2ccccc12
inactive: dose: 12.5 mg/kg/injection, schedule: Q01DX009 (ip), vehicle: other 96 % of control | dose: 25.0 mg/kg/injection, schedule: Q01DX009 (ip), vehicle: other 93 % of control | dose: 50.0 mg/kg/injection, schedule: Q01DX009 (ip), vehicle: other 118 % of control

O=C1C(C(=Nc2ccc(Br)cc2)c2ccccc2)=C(O)c2ccccc21
inactive: dose: 25.0 mg/kg/injection, schedule: Q04DX002 (ip), vehicle: saline with Tween-80 93 % of control | dose: 50.0 mg/kg/injection, schedule: Q04DX002 (ip), vehicle: saline with Tween-80 99 % of control | dose: 100.0 mg/kg/injection, schedule: Q04DX002 (ip), vehicle: saline with Tween-80 92 % of control

Cc1cc(NC(=O)c2ccc(N)cc2)ccc1N=Nc1ccc2c(O)c(N=Nc3ccc(S(=O)(=O)O)cc3C)c(S(=O)(=O)O)cc2c1
inactive: [14] 100 % of control | [16] 90 % of control

C(=C\c1ccncc1)/c1ccccc1
inactive: [7] 92 % of control | [8] 90 % of control

O=C(c1ccc(Br)cc1)c1cnc2nc(-c3ccccc3)c(-c3ccccc3)nn12
inactive: [14] 91 % of control | [16] 96 % of control | [17] 96 % of control

CNC(=O)Cc1ccc2cc(OC)c(OC)cc2c1
inactive: [9] 90 % of control | [10] 95 % of control | [11] 90 % of control

NNC(=O)CNc1ccc(F)c(Cl)c1
inactive: dose: 15.0 mg/kg/injection, schedule: Q01DX005 (ip), vehicle: saline with Tween-80 99 % of control | dose: 30.0 mg/kg/injection, schedule: Q01DX005 (ip), vehicle: saline with Tween-80 96 % of control | [1] 94 % of control and 97 % of control | [2] 104 % of control

c1cc2c(cc1NC1=NCCO1)CCC2
inactive: dose: 6.25 mg/kg/injection, schedule: Q04DX003 (ip), vehicle: saline with Tween-80 100 % of control | dose: 12.5 mg/kg/injection, schedule: Q04DX003 (ip), vehicle: saline with Tween-80 100 % of control | dose: 25.0 mg/kg/injection, schedule: Q04DX003 (ip), vehicle: saline with Tween-80 100 % of control

COc1cc(/C=C(\C#N)C(N)=O)cc(Br)c1O
inactive: [14] 100 % of control | [16] 103 % of control | [17] 100 % of control

CCN(CC)CCOc1cccc(NC(=O)CN(CC)CC)c1
inactive: dose: 15.0 mg/kg/injection, schedule: Q01DX005 (ip), vehicle: Klucel (hydroxypropylcellulose) (HPC) 106 % of control | [15] 103 % of control | [4] 105 % of control and 96 % of control

COc1cc(/C=C(/NC(=O)c2ccccc2)C(O)=C(C#N)C#N)ccc1O
inactive: dose: 60.0 mg/kg/injection, schedule: Q01DX005 (ip), vehicle: saline 95 % of control | dose: 120.0 mg/kg/injection, schedule: Q01DX005 (ip), vehicle: saline 91 % of control

COC1NC(=O)N(C(C)C)C1(C)C (centres undefined)
inactive: dose: 12.5 mg/kg/injection, schedule: Q01DX009 (ip), vehicle: saline 101 % of control | dose: 25.0 mg/kg/injection, schedule: Q01DX009 (ip), vehicle: saline 101 % of control | dose: 50.0 mg/kg/injection, schedule: Q01DX009 (ip), vehicle: saline 100 % of control and 97 % of control | dose: 200.0 mg/kg/injection, schedule: Q01DX009 (ip), vehicle: saline 107 % of control

CC1CCC(C(C)C)C(NC(=O)c2cccnc2)C1 (centres undefined)
inactive: dose: 25.0 mg/kg/injection, schedule: Q04DX002 (ip), vehicle: Klucel (hydroxypropylcellulose) (HPC) 102 % of control | dose: 52.0 mg/kg/injection, schedule: Q04DX002 (ip), vehicle: Klucel (hydroxypropylcellulose) (HPC) 101 % of control | dose: 100.0 mg/kg/injection, schedule: Q04DX002 (ip), vehicle: Klucel (hydroxypropylcellulose) (HPC) 100 % of control | dose: 200.0 mg/kg/injection, schedule: Q04DX002 (ip), vehicle: Klucel (hydroxypropylcellulose) (HPC) 103 % of control

CN=NNCc1ccccc1
inactive: dose: 1.56 mg/kg/injection, schedule: Q01DX005 (ip), vehicle: saline 100 % of control and 102 % of control | dose: 3.12 mg/kg/injection, schedule: Q01DX005 (ip), vehicle: saline 98 % of control and 103 % of control | dose: 6.25 mg/kg/injection, schedule: Q01DX005 (ip), vehicle: saline 102 % of control and 105 % of control | dose: 12.5 mg/kg/injection, schedule: Q01DX005 (ip), vehicle: saline 93 % of control

CCOC(=O)c1ccc(NC(=O)Nc2ccccc2F)cc1
inactive: [1] 95 % of control | [2] 95 % of control | [3] 104 % of control

O=C1NC2(CN3CCC2CC3)C(=O)N1CN(Cc1ccccc1)c1ccccc1 (centres undefined)
inactive: [1] 99 % of control | [2] 99 % of control | [3] 99 % of control
